The subject of one data set is cell receptors. As to conditions: effects are reversible; cited from earlier work.
For the next data set, the system named is mice fibroblasts L-929. As to conditions: effects are reversible; cited from earlier work.
The next data set has as its system S-37. As to the kind of experiment: Antitumor effect on grafted solid tumor S-37. Format: in vivo, mice and rats.
In another data set the test system is Hepatoma G-22c. As to the kind of experiment: Antitumor effect on grafted hepatoma G-22c. Format: in vivo, mice and rats. Conditions: G-22c; days 2-6; effective dose range per compound, 24 h × 5.
Another data set has as its system Hepatoma G-60. As to the kind of experiment: Antitumor effect on grafted hepatoma G-60. Format: in vivo, mice and rats.
The subject of the next data set is Lewis lung carcinoma LL. The data set is described as follows: Antitumor effect on grafted Lewis lung carcinoma LL. Format: in vivo, mice and rats.
The subject of data set [1] is adrenalectomized rat youngsters. The data set is described as follows: Lifespan of adrenalectomized rat youngsters (biological test for the glucocorticoidal activity). In kind it is in vivo. As to conditions: 25-days adrenalectomized rats.
The subject of another data set is P-388. The data set is described as follows: Antitumor effect on grafted hemoblastoses (P-388), extension of lifespan. In kind it is in vivo, mice and rats.
Data set [2] concerns Alveolar mammary cancer RMK-1. The data set is described as follows: Antitumor effect on grafted alveolar mammary cancer RMK-1. In kind it is in vivo, mice and rats.
Data set [3] deals with Large intestine adenocarcinoma AKATOL. The data set is described as follows: Antitumor effect on grafted large intestine adenocarcinoma AKATOL. In kind it is in vivo, mice and rats.
For data set [4], the system named is Viral leukosis Mazurenko LMC-1. The data set is described as follows: Antitumor effect on grafted hemoblastoses (LMC-1), extension of lifespan. Format: in vivo, mice and rats. Conditions: LMC-1; days 2-6 after grafting; effective dose range per compound, 24 h × 5.
A further data set concerns MOPG-406. The data set is described as follows: Antitumor effect on grafted hemoblastoses (MOPC-406), extension of lifespan. Format: in vivo, mice and rats.
The subject of another data set is Ca-755. The data set is described as follows: Antitumor effect on grafted solid tumor Ca-755. Format: in vivo, mice and rats.
The next data set deals with L 1210. As to the kind of experiment: Antitumor effect on grafted hemoblastoses (L 1210), extension of lifespan. In kind it is in vivo, mice and rats.
In a further data set the test system is Hepatoma G-61. As to the kind of experiment: Antitumor effect on grafted hepatoma G-61. In kind it is in vivo, mice and rats.
The next data set relates to mice. As to conditions: mouse, in vivo.
In another data set the test system is La. On the set-up: species or system mice and rats. Conditions: in vivo.
Another data set can be described thus: in vivo. As to conditions: mouse.
A further data set deals with S-180. Also on record: species or system mice and rats. Conditions: in vivo.
The conditions of data set [5]: cited from earlier work.

Structures can show the parent of a compound that is named as a salt.

Consider `CC1(C)O[C@@H]2C[C@H]3[C@@H]4CCC5=CC(=O)C=C[C@]5(C)[C@@]4(F)[C@@H](O)C[C@]3(C)[C@]2(C(=O)COC(=O)N(CCCl)CCCl)O1` [9αF,11β,16α, 17α,26-tetraoxypregna-1,4-diene-3,20-dione-21-[bis-(2-chloroethyl)carbamate], 16,17-acetonide], for which the “reaction with cell receptors” value in the data set on cell receptors is recorded as “react with cell receptors”. In addition, in the data set on mice fibroblasts L-929, the “growth of cultures of mice fibroblasts L-929” value was “inhibit growth of cultures of mice fibroblasts L-929”.
Consider `C[C@]12CCC(=O)C=C1CC[C@@H]1[C@@H]2CC[C@@]2(C)[C@H]1CC[C@]2(O)C(=O)CO` [11-Desoxy-17α-hydroxycorticosterone, 11-desoxy-17α-hydroxycorticosterone, reference compound], for which the “Maximum tumor growth inhibition” value with S-37 (S-37, days 2-6, effective dose range per compound, 24 h × 5) was 29%; with Hepatoma G-22c it was 3%; in the data set with Hepatoma G-60 (G-60, days 6-10, effective dose range per compound, 24 h × 5), 38%; with Lewis lung carcinoma LL (LL, days 2-6, effective dose range per compound, 24 h × 5), 28%; in data set [2] (RMK-1, days 3-7, effective dose range per compound, 24 h × 5, "+" = stimulation of tumor growth), “+4%”; in [3] (AKATOL, days 2-6, effective dose range per compound, 24 h × 5, "+" = stimulation of tumor growth), “+41%”. In addition, the “Maximum tumor growth inhibition” value with Ca-755 (Ca-755, days 2-6, effective dose range per compound, 24 h × 5, "+" = stimulation of tumor growth) is recorded as “+105%”; in the data set with Hepatoma G-61 (G-61, days 7-11, effective dose range per compound, 24 h × 5) it was 37%. The “extension of lifespan of adrenalectomized rat youngsters” value in data set [1] worked out at 115%. Besides, the “Extension of the lifespan of the animals (ELA)” value is reported as -7% in the data set on P-388 (P-388, days 2-6 after grafting, effective dose range per compound, 24 h × 5); 17% in [4]; 0% in the data set on MOPG-406 (MOPG-406, days 2-6 after grafting, effective dose range per compound, 24 h × 5); 6% in the data set with L 1210 (L 1210, days 2-6 after grafting, effective dose range per compound, 24 h × 5).
In the case of `C[C@]12CCC(=O)C=C1CC[C@@H]1[C@@H]2CC[C@@]2(C)[C@H]1CC[C@]2(O)C(=O)COC(=O)CCCc1ccc(N(CCCl)CCCl)cc1` [11-desoxy-17α-hydroxy-21-[p-di(2-chloroethyl)aminophenylbutyrate] corticosterone], the “toxicity (relative)” value in the data set on mice is given as “even lower toxicity”. Also, the “Extension of the lifespan of the animals (ELA)” value with La was 18%; in the data set with P-388 (in vivo), 82%; in the data set with MOPG-406 (in vivo) it was 70%; with L 1210 (in vivo), 20%. Further, the MTD in the data set “in vivo” amounted to 350 mg/kg.
On to `C[C@]12CCC(=O)C=C1CC[C@@H]1[C@@H]2[C@@H](O)C[C@@]2(C)[C@H]1CC[C@]2(O)C(=O)COC(=O)N(CCCl)CCCl` [11β,17α,21-trihydroxy-pregnene-4-3,20-dione-21-[bis(2-chloroethyl)carbamate]], for which the “reaction with cell receptors” value in the data set with cell receptors is on record as “react with cell receptors”. The “growth of cultures of mice fibroblasts L-929” value in the data set with mice fibroblasts L-929 is reported as “inhibit growth of cultures of mice fibroblasts L-929”.
`O=C(O)CCCc1ccc(N(CCCl)CCCl)cc1` [Chlorambucyl, p-di-(2-chloroethyl)aminophenylbutyric acid, reference compound] registered an MTD in the data set “in vivo” of 25 mg/kg.
As to `C[C@]12CC[C@@H]3c4ccc(OC(=O)N(CCCl)CCCl)cc4CC[C@H]3[C@@H]1CC[C@@H]2OP(=O)(O)O` [Estracyte, estra-1,3,5-(10)treine-3,17β-diol-3N-[bis-(2-chloroethyl)carbamate-17-sodium phosphate, reference compound], the “Maximum tumor growth inhibition” value was 85% in the data set on S-37 (in vivo), 29% in the data set on Lewis lung carcinoma LL (in vivo), “+6%” in the data set on Ca-755 (in vivo) and “+23%” with S-180.
For `C[C@]12C=CC(=O)C=C1CC[C@@H]1[C@@H]2[C@@H](O)C[C@@]2(C)[C@H]1CC[C@]2(O)C(=O)COC(=O)CCCc1ccc(N(CCCl)CCCl)cc1` [Prednimustine, pregna-1,4-diene-3,20-dione, 11β17,21-trihydroxy-21-[p-di(2-chloroethyl)aminophenylbutyrate]], the hematotoxicity entry in data set [5] (in vivo) was “Hematotoxicity usually limiting administration”. For the same molecule, in data set [5] (oncological clinic), the side effects entry is reported as “associated mainly with hematotoxicity”.
Take `C[C@]12C=CC(=O)C=C1CC[C@@H]1[C@@H]2[C@@H](O)C[C@@]2(C)[C@H]1CC[C@]2(O)C(=O)CO` [Prednisolone, pregnadiene-1,4-triol-11β,17α,21-dione-3,20, reference compound]: the “Maximum tumor growth inhibition” value with S-37 (in vivo) was determined as 44%; in the data set with Lewis lung carcinoma LL (in vivo) it was 30%; in data set [3] (in vivo) it was 67%; in the data set with Ca-755 (in vivo) it was 70%; in the data set on Hepatoma G-61 (in vivo), 44%.
On to `NC(Cc1ccc(N(CCCl)CCCl)cc1)C(=O)O` (stereo not drawn) [Sarcolysine, β-[p-di(2-chloroethyl)aminophenyl]-α-alanine hydrochloride, reference compound], for which the “Maximum tumor growth inhibition” value with S-37 (in vivo) was 95%; in the data set with Hepatoma G-60 (in vivo), 90%; with Lewis lung carcinoma LL (in vivo) it was 58%; in [2] (in vivo), “+86%”; in data set [3] (in vivo), 56%; with Ca-755 (in vivo), 83%. Also, the “Maximum tumor growth inhibition” value was 87% with Hepatoma G-61 (in vivo) and 76% in the data set with S-180.

These data come from patent US4933332A, “11-desoxy-17-α-hydroxycorticosterone derivatives” (priority 1988, dated 1990).
